According to patent publication US20080009418A1, “Selective Inhibitors” (Alchemia LTD., priority 2004, published 2008):

Tests used:
Human δ-opioid (DOP) = target: T1, Human δ-opioid (DOP) (Homo sapiens, UniProt P41143); experiment: Radioligand binding, human δ-opioid (DOP) membranes, FlashPlate, [3H]-Bremazocine; details: compound at 10 μM; [3H]-Bremazocine
T1 construct: purchased Perkin Elmer Biosignal
How it was run: (§1)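 Cloned human receptor membranes were coated onto FlashPlate wells and incubated with radioligand and compound (added from a 0.5 mM DMSO daughter plate) for 1 hour at room temperature in the dark. Scintillation counting gave percent inhibition, with DMSO defining total and reference ligand defining non-specific binding.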

Human κ-Opioid (KOP) = target: T2, Human κ-Opioid (KOP) (Homo sapiens, UniProt P41145); experiment: Radioligand binding, human κ-opioid (KOP) membranes, filtration, [3H]-Diprenorphine; details: compound at 10 μM; [3H]-Diprenorphine
T2 construct: purchased Perkin Elmer Biosignal
T2 sequence (P41145 whole entry): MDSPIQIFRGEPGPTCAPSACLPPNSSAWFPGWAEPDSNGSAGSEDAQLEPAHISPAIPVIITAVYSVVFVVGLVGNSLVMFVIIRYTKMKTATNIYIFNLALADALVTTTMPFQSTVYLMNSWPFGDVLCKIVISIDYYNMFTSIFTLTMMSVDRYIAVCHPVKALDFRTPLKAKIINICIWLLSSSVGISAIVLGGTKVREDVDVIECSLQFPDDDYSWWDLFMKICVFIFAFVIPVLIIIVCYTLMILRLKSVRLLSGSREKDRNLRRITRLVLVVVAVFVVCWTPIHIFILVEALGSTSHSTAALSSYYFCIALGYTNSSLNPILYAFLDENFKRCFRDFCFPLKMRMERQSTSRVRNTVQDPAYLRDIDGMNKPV
How it was run: (§2)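 Percent inhibition of radioligand binding measured on recombinant human membranes: NK1 with [125I]-Substance P, KOP with [3H]-Diprenorphine. Incubation 1 h at room temperature, then harvest onto 0.3% PEI-soaked filters, cold Tris-HCl pH 7.4 washes and scintillation counting; non-specific binding from reference ligand wells.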

Human Melanocortin (MC3) = target: T3, Human Melanocortin (MC3) (Homo sapiens, UniProt P41968); experiment: Radioligand binding, human melanocortin MC3 membranes, FlashPlate, [125I]-NDP-αMSH; details: compound at 10 μM; [125I]-NDP-αMSH
T3 construct: purchased Perkin Elmer Biosignal
T3 sequence (P41968 whole entry): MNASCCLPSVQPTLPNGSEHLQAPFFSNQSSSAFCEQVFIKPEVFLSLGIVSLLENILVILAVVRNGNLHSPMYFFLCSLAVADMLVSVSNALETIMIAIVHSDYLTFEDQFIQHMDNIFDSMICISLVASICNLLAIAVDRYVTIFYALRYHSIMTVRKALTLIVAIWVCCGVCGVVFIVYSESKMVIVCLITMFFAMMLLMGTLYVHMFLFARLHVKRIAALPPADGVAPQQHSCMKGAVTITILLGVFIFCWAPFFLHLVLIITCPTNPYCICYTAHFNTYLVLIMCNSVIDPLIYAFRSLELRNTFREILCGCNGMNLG
How it was run: as §1

Human Melanocortin (MC4) = target: T4, Human Melanocortin (MC4) (Homo sapiens, UniProt P32245); experiment: Radioligand binding, human melanocortin MC4 membranes, FlashPlate, [125I]-NDP-αMSH; details: compound at 10 μM; [125I]-NDP-αMSH
T4 construct: purchased Perkin Elmer Biosignal
T4 sequence (P32245 whole entry): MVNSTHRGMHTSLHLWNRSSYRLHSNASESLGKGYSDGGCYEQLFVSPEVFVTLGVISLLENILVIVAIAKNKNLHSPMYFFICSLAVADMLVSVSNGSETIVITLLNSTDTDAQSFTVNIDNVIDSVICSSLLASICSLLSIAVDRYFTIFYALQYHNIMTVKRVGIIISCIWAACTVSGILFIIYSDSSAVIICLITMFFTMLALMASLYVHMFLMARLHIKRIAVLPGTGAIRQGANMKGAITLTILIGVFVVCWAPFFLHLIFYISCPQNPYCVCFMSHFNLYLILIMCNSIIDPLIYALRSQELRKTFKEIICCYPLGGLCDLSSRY
How it was run: as §1

Human melanocortin (MC5) = target: T5, Human melanocortin (MC5) (Homo sapiens, UniProt P33032); experiment: Radioligand binding, human melanocortin MC5 membranes, FlashPlate, [125I]-NDP-αMSH; details: compound at 10 μM, [125I]-NDP-αMSH
T5 construct: purchased Perkin Elmer Biosignal
T5 sequence (P33032 whole entry): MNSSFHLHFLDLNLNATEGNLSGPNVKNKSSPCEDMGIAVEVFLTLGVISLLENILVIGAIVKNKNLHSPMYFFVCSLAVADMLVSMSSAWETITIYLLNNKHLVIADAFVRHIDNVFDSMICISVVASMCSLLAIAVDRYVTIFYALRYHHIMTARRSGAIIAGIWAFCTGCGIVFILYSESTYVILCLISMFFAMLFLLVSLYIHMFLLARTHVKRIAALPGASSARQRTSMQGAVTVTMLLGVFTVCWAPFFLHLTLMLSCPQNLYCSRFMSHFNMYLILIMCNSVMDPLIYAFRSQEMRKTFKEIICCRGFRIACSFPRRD
How it was run: as §1

[1] = target: T6, Human melanin-concentrating hormone (MCH1) (Homo sapiens, UniProt Q99705); experiment: Radioligand binding, human melanin-concentrating hormone MCH1 membranes, FlashPlate, [125I]-S36057; details: compound at 10 μM; [125I]-S36057
T6 construct: purchased Perkin Elmer Biosignal
T6 sequence (Q99705 whole entry): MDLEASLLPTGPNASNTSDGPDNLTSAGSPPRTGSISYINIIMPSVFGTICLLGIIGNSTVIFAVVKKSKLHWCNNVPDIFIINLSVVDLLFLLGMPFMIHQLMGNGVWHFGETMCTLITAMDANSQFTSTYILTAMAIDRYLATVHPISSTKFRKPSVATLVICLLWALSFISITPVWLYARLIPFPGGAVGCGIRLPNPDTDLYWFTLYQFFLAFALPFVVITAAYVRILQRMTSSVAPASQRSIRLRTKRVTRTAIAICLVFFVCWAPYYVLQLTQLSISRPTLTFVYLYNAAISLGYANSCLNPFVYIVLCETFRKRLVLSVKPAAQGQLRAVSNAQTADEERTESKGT
How it was run: as §1

Human μ-opioid (MOP) = target: T7, Human μ-opioid (MOP) (Homo sapiens, UniProt P35372); experiment: Radioligand binding, human μ-opioid (MOP) membranes, FlashPlate, [3H]-Naloxone; details: compound at 10 μM; [3H]-Naloxone
T7 construct: purchased Perkin Elmer Biosignal
T7 sequence (P35372 whole entry): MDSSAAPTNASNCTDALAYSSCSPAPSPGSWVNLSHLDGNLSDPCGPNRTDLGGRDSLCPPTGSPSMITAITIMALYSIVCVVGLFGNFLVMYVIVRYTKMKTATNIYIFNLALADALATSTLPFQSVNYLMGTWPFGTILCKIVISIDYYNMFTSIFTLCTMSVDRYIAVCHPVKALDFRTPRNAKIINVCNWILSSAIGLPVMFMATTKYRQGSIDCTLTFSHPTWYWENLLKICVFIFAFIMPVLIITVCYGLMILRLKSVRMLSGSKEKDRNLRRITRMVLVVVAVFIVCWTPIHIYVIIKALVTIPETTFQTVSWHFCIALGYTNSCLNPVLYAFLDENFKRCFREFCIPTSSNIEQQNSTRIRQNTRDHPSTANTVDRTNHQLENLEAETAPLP
How it was run: as §1

Human neurokinin (NK1) = target: T8, Human neurokinin (NK1) (Homo sapiens, UniProt P25103); experiment: Radioligand binding, human neurokinin NK1 membranes, filtration, [125I]-Substance P; details: compound at 10 μM; [125I]-Substance P
T8 construct: purchased Perkin Elmer Biosignal
T8 sequence (P25103 whole entry): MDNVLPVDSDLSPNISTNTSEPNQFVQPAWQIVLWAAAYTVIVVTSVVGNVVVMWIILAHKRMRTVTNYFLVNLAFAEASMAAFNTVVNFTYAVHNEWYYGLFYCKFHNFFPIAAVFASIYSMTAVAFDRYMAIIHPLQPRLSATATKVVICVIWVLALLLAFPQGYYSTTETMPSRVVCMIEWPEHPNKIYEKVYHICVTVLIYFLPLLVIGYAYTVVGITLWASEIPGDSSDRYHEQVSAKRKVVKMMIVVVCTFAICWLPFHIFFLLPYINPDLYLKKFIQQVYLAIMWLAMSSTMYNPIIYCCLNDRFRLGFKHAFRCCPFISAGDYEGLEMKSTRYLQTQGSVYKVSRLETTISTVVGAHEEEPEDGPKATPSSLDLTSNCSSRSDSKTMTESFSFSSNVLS
How it was run: as §2

[2] = target: T9, Human neuropeptide Y (NPY-Y1) (Homo sapiens, UniProt P25929); experiment: Radioligand binding, human neuropeptide Y NPY-Y1 membranes, FlashPlate, [125I]-PYY; details: compound at 10 μM; [125I]-PYY
T9 construct: purchased Perkin Elmer Biosignal
T9 sequence (P25929 1-384): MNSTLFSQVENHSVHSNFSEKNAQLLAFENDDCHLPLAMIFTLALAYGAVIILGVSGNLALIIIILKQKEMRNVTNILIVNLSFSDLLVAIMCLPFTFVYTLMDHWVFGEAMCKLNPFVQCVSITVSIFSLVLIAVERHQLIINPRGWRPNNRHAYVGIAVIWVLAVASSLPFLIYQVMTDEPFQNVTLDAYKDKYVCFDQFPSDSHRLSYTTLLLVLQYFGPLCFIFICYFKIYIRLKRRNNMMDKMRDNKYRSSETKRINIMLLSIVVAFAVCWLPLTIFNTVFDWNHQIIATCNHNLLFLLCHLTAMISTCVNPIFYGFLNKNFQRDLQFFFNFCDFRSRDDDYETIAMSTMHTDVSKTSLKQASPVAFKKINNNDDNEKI
How it was run: as §1

Human opioid (ORL1) = target: T10, Human opioid (ORL1) (Homo sapiens, UniProt P41146); experiment: Radioligand binding, human opioid ORL1 membranes, FlashPlate, [125I]-Nociceptin; details: compound at 10 μM; [125I]-Nociceptin
T10 construct: purchased Perkin Elmer Biosignal
T10 sequence (P41146 whole entry): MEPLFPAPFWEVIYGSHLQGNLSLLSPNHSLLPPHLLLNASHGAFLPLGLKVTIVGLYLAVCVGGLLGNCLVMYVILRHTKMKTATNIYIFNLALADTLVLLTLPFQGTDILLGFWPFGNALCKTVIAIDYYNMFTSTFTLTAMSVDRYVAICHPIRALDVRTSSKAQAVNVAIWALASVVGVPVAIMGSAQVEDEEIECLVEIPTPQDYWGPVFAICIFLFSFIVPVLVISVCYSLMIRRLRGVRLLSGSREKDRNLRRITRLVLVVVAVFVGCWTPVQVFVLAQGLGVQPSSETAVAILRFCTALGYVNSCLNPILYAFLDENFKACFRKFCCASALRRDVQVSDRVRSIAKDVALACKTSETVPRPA
How it was run: as §1

Mouse urotensin (mUR2) = target: T11, Mouse urotensin (mUR2) (Mus musculus, UniProt Q8VIH9); experiment: Radioligand binding, mouse urotensin mUR2 membranes, FlashPlate, [125I]-Urotensin II; details: compound at 10 μM; [125I]-Urotensin II
T11 construct: purchased Perkin Elmer Biosignal
T11 sequence (Q8VIH9 1-385): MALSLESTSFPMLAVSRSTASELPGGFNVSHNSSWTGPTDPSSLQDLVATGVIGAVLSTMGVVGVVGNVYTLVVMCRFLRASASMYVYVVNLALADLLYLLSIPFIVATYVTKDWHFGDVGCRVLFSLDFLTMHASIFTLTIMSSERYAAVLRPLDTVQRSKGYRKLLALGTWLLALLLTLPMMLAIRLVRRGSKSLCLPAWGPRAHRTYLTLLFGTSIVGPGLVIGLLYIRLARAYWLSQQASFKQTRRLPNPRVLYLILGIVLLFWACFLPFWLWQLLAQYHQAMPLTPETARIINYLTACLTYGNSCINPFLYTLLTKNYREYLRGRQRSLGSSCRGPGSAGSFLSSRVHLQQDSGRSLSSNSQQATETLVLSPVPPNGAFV
How it was run: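 Cloned mouse urotensin (mUR2) receptor membranes from Perkin Elmer Biosignal were immobilized in FlashPlate microplates using a proprietary coating. Each well got 19.5 μl buffer, then 0.5 μl of DMSO, reference ligand, or compound. Adding 5 μl of [125I]-Urotensin II, diluted to 5× final concentration in binding buffer, started binding. Plates were sealed with TopSeal-A and incubated 1 hour at room temperature in the dark. Wells were counted for 30 seconds each on a TopCount after a 60-second delay, and percentage inhibition was calculated.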

T1 sequence (P41143 whole entry): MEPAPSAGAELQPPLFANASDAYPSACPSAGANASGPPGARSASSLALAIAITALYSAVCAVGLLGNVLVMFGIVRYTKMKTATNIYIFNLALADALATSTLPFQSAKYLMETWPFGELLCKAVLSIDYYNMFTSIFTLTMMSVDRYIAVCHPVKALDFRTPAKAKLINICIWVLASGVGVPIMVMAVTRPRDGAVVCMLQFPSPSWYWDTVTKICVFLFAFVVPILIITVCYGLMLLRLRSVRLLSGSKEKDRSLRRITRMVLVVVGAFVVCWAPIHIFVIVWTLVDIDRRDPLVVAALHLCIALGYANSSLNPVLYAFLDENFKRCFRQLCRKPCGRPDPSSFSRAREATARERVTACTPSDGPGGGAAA

| Structure (SMILES) | A1: inhibition of radioligand binding, human δ-opioid (DOP) (Human δ-opioid (DOP)) | A2: inhibition of radioligand binding, human κ-opioid (KOP) (Human κ-Opioid (KOP)) | A3: inhibition of radioligand binding, human melanocortin (MC3) (Human Melanocortin (MC3)) | A4: inhibition of radioligand binding, human melanocortin (MC4) (Human Melanocortin (MC4)) | A5: inhibition of radioligand binding, human melanocortin (MC5) (Human melanocortin (MC5)) | A6: inhibition of radioligand binding, human melanin-concentrating hormone (MCH1) [1] | A7: inhibition of radioligand binding, human μ-opioid (MOP) (Human μ-opioid (MOP)) | A8: inhibition of radioligand binding, human neurokinin (NK1) (Human neurokinin (NK1)) | A9: inhibition of radioligand binding, human neuropeptide Y (NPY-Y1) [2] | A10: inhibition of radioligand binding, human opioid (ORL1) (Human opioid (ORL1)) | A11: inhibition of radioligand binding, mouse urotensin (mUR2) (Mouse urotensin (mUR2)) | A5: inhibition of radioligand binding, human melanocortin (MC5) (Human melanocortin (MC5); 10 µM) |
| --- | --- | --- | --- | --- | --- | --- | --- | --- | --- | --- | --- | --- |
| CSC1OC(COCc2cccc(N)c2)C(O)C(OCc2ccc(Cl)cc2)C1NC(=O)c1ccccc1 (stereo not shown) [compound 327] | − (“−” indicates less than 50% inhibition at 10 μM) | − (“−” indicates less than 50% inhibition at 10 μM) | − (“−” indicates less than 50% inhibition at 10 μM) | − (“−” indicates less than 50% inhibition at 10 μM) | − (“−” indicates less than 50% inhibition at 10 μM) | − (“−” indicates less than 50% inhibition at 10 μM) | − (“−” indicates less than 50% inhibition at 10 μM) | + (“+” indicates greater than 50% inhibition at 10 μM) | − (“−” indicates less than 50% inhibition at 10 μM) | − (“−” indicates less than 50% inhibition at 10 μM) | − (“−” indicates less than 50% inhibition at 10 μM) | – |
| CSC1OC(COCc2cccc(N)c2)C(O)C(OCc2ccc(Cl)cc2)C1NC(=O)Cc1ccccc1 (stereo not shown) [compound 328] | − (“−” indicates less than 50% inhibition at 10 μM) | − (“−” indicates less than 50% inhibition at 10 μM) | − (“−” indicates less than 50% inhibition at 10 μM) | − (“−” indicates less than 50% inhibition at 10 μM) | − (“−” indicates less than 50% inhibition at 10 μM) | − (“−” indicates less than 50% inhibition at 10 μM) | − (“−” indicates less than 50% inhibition at 10 μM) | + (“+” indicates greater than 50% inhibition at 10 μM) | − (“−” indicates less than 50% inhibition at 10 μM) | − (“−” indicates less than 50% inhibition at 10 μM) | − (“−” indicates less than 50% inhibition at 10 μM) | – |
| CSC1OC(COCc2cccc(N)c2)C(O)C(OCc2ccc(Cl)cc2)C1NC(=O)C=Cc1ccccc1 (stereo not shown) [compound 329] | − (“−” indicates less than 50% inhibition at 10 μM) | − (“−” indicates less than 50% inhibition at 10 μM) | − (“−” indicates less than 50% inhibition at 10 μM) | − (“−” indicates less than 50% inhibition at 10 μM) | − (“−” indicates less than 50% inhibition at 10 μM) | − (“−” indicates less than 50% inhibition at 10 μM) | − (“−” indicates less than 50% inhibition at 10 μM) | + (“+” indicates greater than 50% inhibition at 10 μM) | − (“−” indicates less than 50% inhibition at 10 μM) | − (“−” indicates less than 50% inhibition at 10 μM) | − (“−” indicates less than 50% inhibition at 10 μM) | – |
| CSC1OC(COCc2cccc(N)c2)C(O)C(OCc2ccccc2)C1NC(=O)Cc1ccccc1 (stereo not shown) [compound 330] | − (“−” indicates less than 50% inhibition at 10 μM) | − (“−” indicates less than 50% inhibition at 10 μM) | − (“−” indicates less than 50% inhibition at 10 μM) | − (“−” indicates less than 50% inhibition at 10 μM) | – | − (“−” indicates less than 50% inhibition at 10 μM) | − (“−” indicates less than 50% inhibition at 10 μM) | + (“+” indicates greater than 50% inhibition at 10 μM) | − (“−” indicates less than 50% inhibition at 10 μM) | − (“−” indicates less than 50% inhibition at 10 μM) | − (“−” indicates less than 50% inhibition at 10 μM) | − (“−” indicates less than 50% inhibition at 10 μM) |
| CSC1OC(COCc2cccc(N)c2)C(O)C(OCc2ccccc2)C1NC(=O)c1c[nH]c2ccccc12 (stereo not shown) [compound 331] | − (“−” indicates less than 50% inhibition at 10 μM) | − (“−” indicates less than 50% inhibition at 10 μM) | − (“−” indicates less than 50% inhibition at 10 μM) | − (“−” indicates less than 50% inhibition at 10 μM) | − (“−” indicates less than 50% inhibition at 10 μM) | − (“−” indicates less than 50% inhibition at 10 μM) | − (“−” indicates less than 50% inhibition at 10 μM) | + (“+” indicates greater than 50% inhibition at 10 μM) | − (“−” indicates less than 50% inhibition at 10 μM) | − (“−” indicates less than 50% inhibition at 10 μM) | − (“−” indicates less than 50% inhibition at 10 μM) | – |
